Experimental data taken from article PMC12298822 (Molecules, 2025).

Tests used:
[1] = 100 mg dose; cited from earlier work
[2] = Stability of sitagliptin in human plasma samples under storage and handling conditions; format: in vitro ADME
Experimental: (§1) Human plasma samples were removed from a −70 °C deep freezer and thawed at room temperature. After vortexing and centrifugation, 100 µL of plasma was transferred into a glass tube. To this, 20 µL of the IS (1000 ng/mL) was added, followed by the addition of 2 mL of MTBE as the extraction solvent. The mixture was vortexed vigorously for 10 min and centrifuged at 1699 g for 10 min at 4 °C. The upper organic layer (2 mL) was carefully transferred to a new tube and evaporated to dryness under a nitrogen stream at 40 °C. The dried residue was reconstituted with a total volume of 1 mL of a reconstitution solvent composed of 0.01% formic acid in DW and 100% ACN (1:1, v/v), vortexed for 10 min, and centrifuged again at 1699× g. A 5 µL aliquot of the clear supernatant was injected into the LC–MS/MS system for analysis.
The stability of both stock and working solutions was evaluated at low and high QC levels (n = 3) under storage conditions of room temperature (25 °C) for 3 h and −20 °C for 7 h. All results were within the acceptable deviation limit of ±15% from the nominal concentrations. To assess the plasma stability of the analyte, low, medium, and high QC levels (n = 3) were tested under various conditions, including refrigerated storage at 4 °C for 24 h, deep-freezing at −70 °C for 7 h, three freeze–thaw cycles (between −70 °C and room temperature), and storage in the autosampler at 10 °C for 30 h. All measured concentrations under these conditions met the predefined acceptance criteria of ±15%, confirming the robustness and reliability of the analytical method.

[3] = Stability of stock and working solutions; format: physicochemical
Experimental: These stock solutions were diluted with 50% acetonitrile to prepare working standard solutions. The working solutions’ calibration curve (CC) concentrations were set at 50, 100, 500, 1000, 2500, 5000, and 10,000 ng/mL, while the quality control (QC) concentrations were 150, 3000, and 8000 ng/mL. The IS concentration was prepared at 1000 ng/mL. All working stock solutions were prepared and stored at −20 °C until use. […] Consequently, the final calibration curve range was 5–1000 ng/mL. […] All results were within the acceptable deviation limit of ±15% from the nominal concentrations. To assess the plasma stability of the analyte, low, medium, and high QC levels (n = 3) were tested under various conditions, including refrigerated storage at 4 °C for 24 h, deep-freezing at −70 °C for 7 h, three freeze–thaw cycles (between −70 °C and room temperature), and storage in the autosampler at 10 °C for 30 h. All measured concentrations under these conditions met the predefined acceptance criteria of ±15%, confirming the robustness and reliability of the analytical method.

[4] = cited from earlier work
[5] = Pharmacokinetic study after a single oral 100 mg sitagliptin tablet in healthy Korean male subjects (LC-MS/MS of plasma); format: in vivo, human; settings: single oral 100 mg tablet, fasting
Experimental: as §1
This study procedures were conducted with the principles of the Helsinki Declaration (World Medical Association Declaration of Helsinki 2000) and Korean Good Clinical Practice guidelines. The study was approved by the Institutional Review Board (IRB) of Kyung Hee University Hospital (IRB No. KHUH 2023-07-039; approval date: 20 October 2023). […] Blood samples were collected using EDTA-K2 anticoagulant tubes at various time points: pre-dose (0 h), and at 0.5, 1, 1.5, 2, 2.5, 3, 4, 6, 8, 16, 24, and 48 h following administration. Once collected, the blood samples were centrifuged at 3000 rpm for 10 min to separate the plasma, which was then transferred to labeled tubes and stored at −70 °C until analysis. All clinical procedures, including dosing, sampling, and analysis, were conducted consistently across all subjects.
Pharmacokinetic parameters such as Cmax (maximum plasma concentration), Tmax (time to reach Cmax), T1/2 (elimination half-life), and CL/F (apparent oral clearance) were determined from individual plasma concentration–time profiles. Non-compartmental analysis for extravascular administration was performed using BA Cal 2007 software (MFDS, version 1.0.0). This analysis calculated parameters including AUClast (area under the concentration–time curve from 0 to 48 h) and AUCinf (area under the curve extrapolated to infinity). The statistical analysis of the pharmacokinetic data was conducted using K-BE Test II software (version 2.0.2), which was developed and distributed by the MFDS [26].

[6] = cited from earlier work; remark: listed apart in the source

N[C@@H](CC(=O)N1CCn2c(nnc2C(F)(F)F)C1)Cc1cc(F)c(F)cc1F [Sitagliptin, 7-[(3R)-3-amino-1-oxo-4-(2,4,5-trifluorophenyl)butyl]-5,6,7,8-tetrahydro-3-(trifluoromethyl)]
maximum concentration (Cmax) [1]: 327.98 ng/mL
terminal half-life (T1/2) [1]: 8.92 h
time to reach maximum concentration (Tmax) [1]: 2.68 h
Plasma sample stability (%), mean ([2]; human plasma, deep freeze (7 h, −70 °C), 15 ng/mL): 99.61%
Plasma sample stability (%), mean ([2]; human plasma, deep freeze (7 h, −70 °C), 300 ng/mL): 96.77%
Plasma sample stability (%), mean ([2]; human plasma, deep freeze (7 h, −70 °C), 800 ng/mL): 97.96%
Plasma sample stability (%), mean ([2]; human plasma, freeze–thaw (3 cycles), 15 ng/mL): 103.73%
Plasma sample stability (%), mean ([2]; human plasma, freeze–thaw (3 cycles), 300 ng/mL): 98.57%
Plasma sample stability (%), mean ([2]; human plasma, freeze–thaw (3 cycles), 800 ng/mL): 97.71%
Plasma sample stability (%), mean ([2]; human plasma, refrigeration (7 h, 4 °C), 15 ng/mL): 100.61%
Plasma sample stability (%), mean ([2]; human plasma, refrigeration (7 h, 4 °C), 300 ng/mL): 100.02%
Plasma sample stability (%), mean ([2]; human plasma, refrigeration (7 h, 4 °C), 800 ng/mL): 96.29%
Plasma sample stability (%), mean ([2]; human plasma, room temperature (7 h), 15 ng/mL): 102.57%
Plasma sample stability (%), mean ([2]; human plasma, room temperature (7 h), 300 ng/mL): 97.43%
Plasma sample stability (%), mean ([2]; human plasma, room temperature (7 h), 800 ng/mL): 96.99%
Plasma sample stability (%), mean ([2]; processed (LLE) plasma sample, autosampler (30 h, 10 °C), 15 ng/mL): 105.20%
Plasma sample stability (%), mean ([2]; processed (LLE) plasma sample, autosampler (30 h, 10 °C), 300 ng/mL): 97.37%
Plasma sample stability (%), mean ([2]; processed (LLE) plasma sample, autosampler (30 h, 10 °C), 800 ng/mL): 96.83%
Solution stability (%), mean ([3]; stock solution, room temperature (3 h), 15 ng/mL level, vs freshly prepared): 100.89%
Solution stability (%), mean ([3]; stock solution, room temperature (3 h), 800 ng/mL level, vs freshly prepared): 99.25%
Solution stability (%), mean ([3]; working solution, room temperature (7 h), 15 ng/mL level): 100.19%
Solution stability (%), mean ([3]; working solution, room temperature (7 h), 800 ng/mL level): 95.93%
binding to plasma proteins [4]: 38%
half-life ([5]; human, plasma, n = 8, mean): 8.47 ± 3.08 h
Cmax ([5]; human, n = 8, plasma, mean): 373 ng/mL
Tmax ([5]; human, n = 8, plasma, mean): 2.06 h
AUClast ([5]; n = 8, 0 to 48 h, mean): 2863.82 ng·h/mL
AUCinf ([5]; n = 8, extrapolated to infinity, mean): 3010.56 ± 302.61 ng·h/mL
apparent volume of distribution [6]: approximately 198 L
fraction of total clearance by hepatic metabolism (CYP3A4 and CYP2C8) [6]: < 16%
oral bioavailability [6]: approximately 87%
